SMILES strings stand for the structures.

The target of one experiment is T1, N-terminal GST-tagged, recombinant, human JAK2 (amino acids 831-1132) (Homo sapiens, UniProt O60674).
T1 construct: human JAK2 (amino acids 831-1132, PLAZA database pAZB0359); GST (N); host or cells: insect cells
T1 sequence (O60674 831-1132): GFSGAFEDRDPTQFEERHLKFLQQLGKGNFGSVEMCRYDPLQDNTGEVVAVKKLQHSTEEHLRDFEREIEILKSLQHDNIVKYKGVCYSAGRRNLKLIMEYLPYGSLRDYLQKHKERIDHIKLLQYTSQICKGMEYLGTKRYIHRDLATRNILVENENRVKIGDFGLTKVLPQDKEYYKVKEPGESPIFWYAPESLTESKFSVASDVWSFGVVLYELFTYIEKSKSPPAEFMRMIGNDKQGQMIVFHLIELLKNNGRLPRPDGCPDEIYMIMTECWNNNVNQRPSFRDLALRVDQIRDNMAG
As to the kind of experiment: JAK2 mobility shift assay on Caliper LC3000 (Method 2). Type of experiment: biochemical. The conditions noted are these: 0.3 nM JAK2 enzyme, 5 mM ATP, 1.5 μM SRCtide, 90 minutes room temperature. Here is the method: Janus kinase 2 (JAK2) activity was also determined by measuring the kinase's ability to phosphorylate a tyrosine residue within a peptide substrate using a mobility shift assay on a Caliper LC3000 reader (Caliper, Hopkinton, Mass.), which measures fluorescence of the phosphorylated and unphosphorylated substrate and calculates a ratiometric value to determine percent turnover.
To measure JAK2 kinase activity, an in-house purified enzyme was used. […] After incubation of the kinase with a FAM labeled SRCtide substrate, adenosine triphosphate (ATP), and MgCl2 for 90 minutes at room temperature, the kinase reaction was stopped by the addition of 36 mM ethylenediaminetetraacetic acid (EDTA). The reaction was performed in 384 well microtitre plates and the reaction products were detected using the Caliper LC3000 Reader.
As to `C[C@H](Nc1nc(Nc2cn(C)cn2)c2cc(C(F)(F)F)[nH]c2n1)c1ncc(F)cn1` [Example 19, N^2-[(1S)-1-(5-Fluoropyrimidin-2-yl)ethyl]-N^4-(1-methyl-1H-imidazol-4-yl)-6-(trifluoromethyl)-7H-pyrrolo[2,3-d]pyrimidine-2,4-diamine], the IC50 is 13 nM.

On to `CC(Nc1nc(Nc2cn(C)cn2)c2cc(F)cnc2n1)c1ncc(F)cc1F` (single isomer, unassigned) [Example 31(b), N^2-[1-(3,5-Difluoropyridin-2-yl)ethyl]-6-fluoro-N^4-(1-methyl-1H-imidazol-4-yl)pyrido[2,3-d]pyrimidine-2,4-diamine], for which the IC50 came to 15000 nM.

In the case of `CC(Nc1nc(Nc2cn(C)cn2)c2cc[nH]c2n1)c1ncc(F)cc1F` (single isomer, unassigned) [Example 25(b), N^2-[1-(3,5-Difluoropyridin-2-yl)ethyl]-N^4-(1-methyl-1H-imidazol-4-yl)-7H-pyrrolo[2,3-d]pyrimidine-2,4-diamine], the IC50 stood at 10 nM.

For `COc1cnc(C(C)Nc2nc(Nc3cn(C)cn3)c3cc[nH]c3n2)nc1` (centres unmarked) [Example 27(b), N^2-[1-(5-Methoxypyrimidin-2-yl)ethyl]-N^4-(1-methyl-1H-imidazol-4-yl)-7H-pyrrole[2,3-d]pyrimidine-2,4-diamine], the IC50 worked out at 520 nM.

`Cc1cc2c(Nc3cn(C)cn3)nc(N[C@@H](C)c3ncc(F)cn3)nc2[nH]1` [Example 20, N^2-[(1S)-1-(5-Fluoropyrimidin-2-yl)ethyl]-6-methyl-N^4-(1-methyl-1H-imidazol-4-yl)-7H-pyrrolo[2,3-d]pyrimidine-2,4-diamine]: the IC50 was 13 nM.

For the compound `C[C@H](Nc1nc(Nc2cn(C)cn2)c2ccc(O)nc2n1)c1ncc(F)cn1` [Example 34, 2-{[(1S)-1-(5-Fluoropyrimidin-2-yl)ethyl]amino}-4-[(1-methyl-1H-imidazol-4-yl)amino]pyrido[2,3-d]pyrimidin-7-ol], the concentration for half-maximal inhibition (IC50) was 47 nM.

The target of another experiment is T2, C-terminal His6-tagged human JAK2 kinase (Homo sapiens, UniProt O60674).
T2 construct: His6 (C); purchased Upstate Biotechnology, MA 14-640; host or cells: baculovirus in Sf21 cells
T2 sequence (O60674 808-1132 limits assumed): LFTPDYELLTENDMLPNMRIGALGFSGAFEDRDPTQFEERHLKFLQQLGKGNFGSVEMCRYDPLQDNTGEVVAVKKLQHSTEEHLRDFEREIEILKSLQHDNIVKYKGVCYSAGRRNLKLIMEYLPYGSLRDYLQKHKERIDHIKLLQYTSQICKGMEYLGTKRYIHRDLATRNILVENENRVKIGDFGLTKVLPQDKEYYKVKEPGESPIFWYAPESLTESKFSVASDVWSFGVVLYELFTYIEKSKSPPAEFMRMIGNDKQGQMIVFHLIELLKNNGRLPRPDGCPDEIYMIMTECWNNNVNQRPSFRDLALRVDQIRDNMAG
Briefly: JAK2 Amplified Luminescent Proximity Homogeneous Assay (ALPHA) (Method 3). Type of experiment: biochemical. The conditions noted are these: biotinylated Tyk substrate, 20 minutes preincubation, 90 minutes at 25° C. Here is the method:
Activity of purified C-terminal His6-tagged human JAK2 kinase was determined in-vitro using an Amplified Luminescent Proximity Homogeneous Assay (ALPHA) (Perkin Elmer, MA), which measures phosphorylation of a biotinylated Tyk ([…]) substrate (Cell Signaling Technology, MA, Cat #2200B). Commercially available JAK2 (amino acids 808-end, Genbank Accession number NM 004972, Upstate Biotechnology, MA, Catalog 14-640) was expressed by baculovirus in Sf21 cells and affinity purified by Ni^+2/NTA agarose.
The phosphorylation of Tyk substrate in the presence and absence of the compound of interest was determined. Briefly, 5 μl of Enzyme/Substrate/adenosine triphosphate (ATP) mix consisting of 1.44 nM JAK2, 192 nM Tyk, and 12 mM ATP in 1.2× buffer was preincubated with 2 μl of compound for 20 minutes at 25° C. […] Phosphorylated substrate was detected by an EnVision plate reader (Perkin Elmer, MA) 680 nm excitation, 520-620 nm emission. Data was graphed and IC50s calculated using Excel Fit (Microsoft).
`CCn1ncc2c(Nc3cn(C)cn3)nc(NC(C)c3ncc(F)cn3)nc21` (single isomer, unassigned) [Example 9(a), 1-Ethyl-N^6-[1-(5-fluoropyrimidin-2-yl)ethyl]-N^4-(1-methyl-1H-imidazol-4-yl)-1H-pyrazolo[3,4-d]pyrimidine-4,6-diamine]: the IC50 came out at 13700 nM.

`CC(Nc1nc(Nc2cn(C)cn2)c2cc[nH]c2n1)c1ncc(F)cc1F` (single isomer, unassigned) [Example 25(a), N^2-[1-(3,5-Difluoropyridin-2-yl)ethyl]-N^4-(1-methyl-1H-imidazol-4-yl)-7H-pyrrolo[2,3-d]pyrimidine-2,4-diamine] returned an IC50 of 2900 nM.

Broadly, the IC50 is the concentration that inhibits the measured activity by half.
